Measured values from US8563562B2, “Compounds having antiviral properties” (priority 2008, dated 2013).

How the values were obtained:
Format in all cases: cell-based
[1] = system: HIV-1 reporter virus, wild-type (WT) integrase; experiment: Luciferase reporter virus infectivity assay in 293T cells; settings: Human immunodeficiency virus 1, HEK-293T, 48 h, read-out: Luciferase assay EC50, WT
Description: (§1) Infectivity assays using reporter viruses derived from lentiviral vectors capable of a single round of infection were used to determine the activity (EC50) of compounds. The DNA used to generate viruses for infection was the full-length HIV-1 genome which had been envelope-deleted. In addition, a reporter gene (the firefly luciferase gene from Photinus pyralis) was cloned into the nef region of the HIV backbone for ease of assay readout. […]. Culture supernatants containing VSV-G pseudotyped virions were harvested 64 h post transfection, clarified by centrifugation to remove cell debris, and frozen at −70° C. until use.
(§2) HIV integrase was mutated within a shuttle vector (pGEM) containing the majority of the HIV-1 gag and pol sequence using site-directed mutagenesis to generate sequences that are known to confer resistance to published integrase inhibitors. These include but are not limited to mutations such as Q148H/G140S (in table #QHGS), N155H/E92Q (in table #NHEQ), F121Y/T124K (in table FYTK), Y143R (in table #Y143R) and the triple mutant Q148K/G140A/E138A. (in table#QKGAEA). The mutated integrase coding region within the shuttle vector was sequence verified, and then exchanged for the wild-type (WT) coding sequence in the reporter virus DNA backbone.
(§3) 293T cells were plated out at 12000 cells per well in CellView 96-well cell culture plates (Invitrogen) 16 h prior to compound addition. Compounds were preincubated with cells for 4 h at 37° C. prior to the addition of virus sufficient to generate approximately 10000 Luciferase light units (as measured by the Victor Wallace luminometer) upon assaying using the Bright-Glo™ reagent (Promega) according to the manufacturer's instructions at 48 h post infection.

[2] = system: HIV-1 reporter virus, Q148H/G140S (QHGS) integrase; experiment: as above; settings: Human immunodeficiency virus 1, HEK-293T, 48 h, read-out: Luciferase assay EC50, QHGS
Description: as §1, §2, §3

[3] = system: HIV-1 reporter virus, N155H/E92Q (NHEQ) integrase; experiment: as above; settings: Human immunodeficiency virus 1, HEK-293T, 48 h, read-out: Luciferase assay EC50, NHEQ
Description: as §1, §2, §3

[4] = system: HIV-1 reporter virus, Q148K/G140A/E138A (QKGAEA) integrase; experiment: as above; settings: Human immunodeficiency virus 1, HEK-293T, 48 h, read-out: Luciferase assay EC50, QKGAEA
Description: as §1, §2, §3

[5] = system: HIV-1 reporter virus, Y143R integrase; experiment: as above; settings: Human immunodeficiency virus 1, HEK-293T, 48 h, read-out: Luciferase assay EC50, Y143R
Description: as §1, §2, §3

[6] = system: HIV variant E92Q/N155H integrase; experiment: PhenoScreen (Phenosense) assay, single-round luciferase pseudotyped HIV; settings: Human immunodeficiency virus 1, read-out: Activity, Phenosense assay, E92Q/N155H
Description: (§4) Monogram Bioscience' PhenoScreen assay allows the evaluation of integrase inhibitors for activity against a variety of HIV variants. The assay uses virus generated from 2 DNA constructs; one containing the HIV LTR, gag and pol regions, as well as a luciferase reporter gene in place of the viral envelope genes, and a second DNA construct containing the amphotrophic murine leukemia virus (A-MLV) envelope gene required to pseudotype virions and render them capable of entry into a target cell. Viruses generated using these constructs by transfection into a producer cell line such as 293T are capable of one-round of infection only. Successful integration events are directly proportional to the levels of luciferase expression 48 h after infection.
(§5) The viral variants chosen by the present inventors to screen integration inhibitors consist of mutations within the viral integrase enzyme known to confer resistance to a number of known integration inhibitors published in the literature. In particular, the viral variants containing the Q148H/G140S double mutation in integrase, and the N155H/E92Q double mutation in integrase, represent two of the more common viruses identified to arise in patients that are failing treatment with Isentress (Raltegravir, MK-0518).

[7] = system: HIV variant G140S/Q148H integrase; experiment: as above; settings: Human immunodeficiency virus 1, read-out: Activity, Phenosense assay, G140S Q148H
Description: as §4, §5

[8] = system: HIV variant Y143R integrase; experiment: as above; settings: Human immunodeficiency virus 1, read-out: Activity, Phenosense assay, Y143R
Description: as §4, §5

[9] = system: HIV WT integrase; experiment: as above; settings: Human immunodeficiency virus 1, read-out: Activity, Phenosense assay, WT
Description: as §4, §5

[10] = system: HIV variant T125K/F121Y integrase; experiment: as above; settings: Human immunodeficiency virus 1, read-out: Activity, Phenosense assay, T125K F121Y
Description: as §4, §5

[11] = system: HIV variant T661/S153Y integrase; experiment: as above; settings: Human immunodeficiency virus 1, read-out: Activity, Phenosense assay, T661 S153Y
Description: as §4, §5

SMILES | EC50 [1] | EC50 [2] | EC50 [3] | further results
CN1CCN(c2cc(N3CCOCC3)cn3c(=O)c(O)c(-c4ncc(Cc5ccc(F)cc5)[nH]4)nc23)C1=O [Example 109, 5-(4-Fluoro-benzyl)-2-[3-hydroxy-9-(3-methyl-2-oxo-imidazolidin-1-yl)-7-morpholin-4-yl-4-oxo-4H-pyrido[1,2-a]pyrimidin-2-yl]-1H-imidazol-1-ium; chloride] | 0.001 to 0.1 µM | 0.1 to 1 µM | 0.1 to 1 µM | 
O=c1c(O)c(-c2ncc(Cc3ccc(F)cc3)[nH]2)nc2c(Br)cc(N3CCOCC3)cn12 [Example 47, 2-(9-Bromo-3-hydroxy-7-morpholin-4-yl-4-oxo-4H-pyrido[1,2-a]pyrimidin-2-yl)-5-(4-fluoro-benzyl)-1H-imidazol-1-ium chloride] |  | 0.1 to 1 µM |  | 
CN1CCN(c2cc(N(C)C)cn3c(=O)c(O)c(-c4ncc(Cc5ccc(F)cc5)s4)nc23)C1=O [Example 70, 7-Dimethylamino-2-[5-(4-fluoro-benzyl)-thiazol-2-yl]-3-hydroxy-9-(3-methyl-2-oxo-imidazolidin-1-yl)-pyrido[1,2-a]pyrimidin-4-one] | 0.001 to 0.1 µM | 0.001 to 0.1 µM | 0.001 to 0.1 µM | 
CN1CCN(c2cc(N3CCOCC3)cn3c(=O)c(O)c(-c4ncc(Cc5ccc(F)c(Cl)c5)s4)nc23)C1=O [Example 60, 2-[5-(3-Chloro-4-fluoro-benzyl)-thiazol-2-yl]-3-hydroxy-9-(3-methyl-2-oxo-imidazolidin-1-yl)-7-morpholin-4-yl-pyrido[1,2-a]pyrimidin-4-one] | 0.001 to 0.1 µM | 0.001 to 0.1 µM | 0.001 to 0.1 µM | EC50 [4]: 0.001 to 0.1 µM; EC50 [5]: 0.001 to 0.1 µM
Cc1ccc2nc(-c3ncc(Cc4ccc(F)cc4)s3)c(O)c(=O)n2c1 [Comparative example 2, reference compound] |  |  |  | EC50 [6]: 1 to 10 µM; EC50 [7]: 1 to 10 µM; EC50 [8]: 0.1 to 1 µM; EC50 [9]: 0.1 to 1 µM; EC50 [10]: 0.1 to 1 µM; EC50 [11]: 0.1 to 1 µM
O=c1c(O)c(-c2ncc(Cc3ccc(Cl)c(Cl)c3)s2)nc2c(N3CCCS3(=O)=O)cc(N3CCOCC3)cn12 [Example 108, 2-[5-(3,4-Dichloro-benzyl)-thiazol-2-yl]-9-(1,1-dioxo-116-isothiazolidin-2-yl)-3-hydroxy-7-morpholin-4-yl-pyrido[1,2-a]pyrimidin-4-one] | 0.001 to 0.1 µM | 0.1 to 1 µM |  | 
CC(=O)c1cc(N2CCOCC2)cn2c(=O)c(O)c(-c3ncc(Cc4ccc(F)cc4)s3)nc12 [Example 53, 9-Acetyl-2-[5-(4-fluoro-benzyl)-thiazol-2-yl]-3-hydroxy-7-morpholin-4-yl-pyrido[1,2-a]pyrimidin-4-one] |  | 0.1 to 1 µM |  | 
CC(C)N1CCN(c2cc(N3CCOCC3)cn3c(=O)c(O)c(-c4ncc(Cc5ccc(F)cc5)s4)nc23)C1=O [Example 56, 2-[5-(4-Fluoro-benzyl)-thiazol-2-yl]-3-hydroxy-9-(3-isopropyl-2-oxo-imidazolidin-1-yl)-7-morpholin-4-yl-pyrido[1,2-a]pyrimidin-4-one] | 0.001 to 0.1 µM | 0.001 to 0.1 µM | 0.001 to 0.1 µM | EC50 [4]: 0.001 to 0.1 µM; EC50 [5]: 0.001 to 0.1 µM
O=C1CCCN1c1cc(N2CCOCC2)cn2c(=O)c(O)c(-c3ncc(Cc4ccc(F)cc4)[nH]3)nc12 [Example 83, 5-(4-fluorobenzyl)-2-(3-hydroxy-7-morpholino-4-oxo-9-(2-oxopyrrolidin-1-yl)-4H-pyrido[1,2-a]pyrimidin-2-yl)-1H-imidazol-3-ium chloride] |  | 0.1 to 1 µM |  | 
O=c1c(O)c(-c2ncc(Cc3ccc(F)cc3)o2)nc2ccc(N3CCOCC3)cn12 [Example 7, 2-[5-(4-fluoro-benzyl)-oxazol-2-yl]-3-hydroxy-7-morpholin-4-yl-pyrido[1,2-a]pyrimidin-4-one] |  |  |  | EC50 [6]: 0.1 to 1 µM; EC50 [7]: 1 to 10 µM; EC50 [8]: 0.001 to 0.1 µM; EC50 [9]: 0.001 to 0.1 µM; EC50 [10]: 0.1 to 1 µM; EC50 [11]: 0.001 to 0.1 µM
O=C1CCCN1c1cc(N2CCOCC2)cn2c(=O)c(O)c(-c3ncc(Cc4ccc(F)cc4)s3)nc12 [Example 97, 2-[5-(4-Fluoro-benzyl)-thiazol-2-yl]-3-hydroxy-7-morpholin-4-yl-9-(2-oxo-pyrrolidin-1-yl)-pyrido[1,2-a]pyrimidin-4-one] |  | 0.1 to 1 µM |  | 
CN1CCN(c2cc(N3CCOCC3)cn3c(=O)c(O)c(-c4ncc(Cc5ccc(F)c(Cl)c5)[nH]4)nc23)C1=O [Example 77, 5-(3-chloro-4-fluorobenzyl)-2-(3-hydroxy-9-(3-methyl-2-oxoimidazolidin-1-yl)-7-morpholino-4-oxo-4H-pyrido[1,2-a]pyrimidin-2-yl)-1H-imidazol-3-ium chloride] | 0.001 to 0.1 µM | 0.1 to 1 µM | 0.001 to 0.1 µM | 
O=C1OCCN1c1cc(N2CCOCC2)cn2c(=O)c(O)c(-c3ncc(Cc4ccc(F)cc4)[nH]3)nc12 [Example 87, 5-(4-fluorobenzyl)-2-(3-hydroxy-7-morpholino-4-oxo-9-(2-oxooxazolidin-3-yl)-4H-pyrido[1,2-a]pyrimidin-2-yl)-1H-imidazol-3-ium chloride] |  | 0.1 to 1 µM |  | 
CN1CCN(c2cc(N3CCOCC3)cn3c(=O)c(O)c(-c4ncc(Cc5ccc(F)c(F)c5)[nH]4)nc23)C1=O [Example 79, 5-(3,4-difluorobenzyl)-2-(3-hydroxy-9-(3-methyl-2-oxoimidazolidin-1-yl)-7-morpholino-4-oxo-4H-pyrido[1,2-a]pyrimidin-2-yl)-1H-imidazol-3-ium chloride] | 0.001 to 0.1 µM | 0.1 to 1 µM | 0.001 to 0.1 µM | 
CN(c1cc(N2CCOCC2)cn2c(=O)c(O)c(-c3ncc(Cc4ccc(F)cc4)[nH]3)nc12)S(C)(=O)=O [Example 95, 5-(4-fluorobenzyl)-2-(3-hydroxy-9-(N-methylmethylsulfonamido)-7-morpholino-4-oxo-4H-pyrido[1,2-a]pyrimidin-2-yl)-1H-imidazol-3-ium chloride] | 0.001 to 0.1 µM | 0.1 to 1 µM | 0.001 to 0.1 µM | 
CN1CCN(c2cc(N(C)C)cn3c(=O)c(O)c(-c4ncc(Cc5ccc(F)cc5)[nH]4)nc23)C1=O [Example 72, 2-(7-(dimethylamino)-3-hydroxy-9-(3-methyl-2-oxoimidazolidin-1-yl)-4-oxo-4H-pyrido[1,2-a]pyrimidin-2-yl)-5-(4-fluorobenzyl)-1H-imidazol-3-ium chloride] |  | 0.1 to 1 µM |  | 
O=C(NCc1ccc(Cl)c(Cl)c1)c1nc2ccc(N3CCOCC3)cn2c(=O)c1O [Comparative example 1, reference compound] |  |  |  | EC50 [6]: > 10 µM; EC50 [7]: > 10 µM; EC50 [9]: 0.001 to 0.1 µM
CN1CCN(c2cc(N3CCOCC3)cn3c(=O)c(O)c(-c4ncc(Cc5ccc(F)cc5)[nH]4)nc23)S1(=O)=O [Example 91, 4-(4-Fluoro-benzyl)-2-[3-hydroxy-9-(5-methyl-1,1-dioxo-116-[1,2,5]thiadiazolidin-2-yl)-7-morpholin-4-yl-4-oxo-4H-pyrido[1,2-a]pyrimidin-2-yl]-3H-imidazol-1-ium; chloride] | 0.001 to 0.1 µM | 0.001 to 0.1 µM | 0.001 to 0.1 µM | 
